# Measurements: the Kinase Knowledgebase extract (Sharma et al. 2016)
# Assays:
# PIK3CA (human) = PIK3CA (human) (UniProt P42336); assay: Inhibition of PIK3CA Kinase Activity
# PIK3CB (Human) = PIK3CB (Human) (UniProt P42338); assay: Inhibition of PIK3CB Kinase Activity
# PIK3CG (human) = PIK3CG (human) (UniProt P48736); assay: Inhibition of PIK3CG Kinase Activity
# PIK3CD (Human) = PIK3CD (Human) (UniProt O00329); assay: Inhibition of PIK3CD Kinase Activity
# PIK3CD (Human), sequence (O00329 whole entry, looked up): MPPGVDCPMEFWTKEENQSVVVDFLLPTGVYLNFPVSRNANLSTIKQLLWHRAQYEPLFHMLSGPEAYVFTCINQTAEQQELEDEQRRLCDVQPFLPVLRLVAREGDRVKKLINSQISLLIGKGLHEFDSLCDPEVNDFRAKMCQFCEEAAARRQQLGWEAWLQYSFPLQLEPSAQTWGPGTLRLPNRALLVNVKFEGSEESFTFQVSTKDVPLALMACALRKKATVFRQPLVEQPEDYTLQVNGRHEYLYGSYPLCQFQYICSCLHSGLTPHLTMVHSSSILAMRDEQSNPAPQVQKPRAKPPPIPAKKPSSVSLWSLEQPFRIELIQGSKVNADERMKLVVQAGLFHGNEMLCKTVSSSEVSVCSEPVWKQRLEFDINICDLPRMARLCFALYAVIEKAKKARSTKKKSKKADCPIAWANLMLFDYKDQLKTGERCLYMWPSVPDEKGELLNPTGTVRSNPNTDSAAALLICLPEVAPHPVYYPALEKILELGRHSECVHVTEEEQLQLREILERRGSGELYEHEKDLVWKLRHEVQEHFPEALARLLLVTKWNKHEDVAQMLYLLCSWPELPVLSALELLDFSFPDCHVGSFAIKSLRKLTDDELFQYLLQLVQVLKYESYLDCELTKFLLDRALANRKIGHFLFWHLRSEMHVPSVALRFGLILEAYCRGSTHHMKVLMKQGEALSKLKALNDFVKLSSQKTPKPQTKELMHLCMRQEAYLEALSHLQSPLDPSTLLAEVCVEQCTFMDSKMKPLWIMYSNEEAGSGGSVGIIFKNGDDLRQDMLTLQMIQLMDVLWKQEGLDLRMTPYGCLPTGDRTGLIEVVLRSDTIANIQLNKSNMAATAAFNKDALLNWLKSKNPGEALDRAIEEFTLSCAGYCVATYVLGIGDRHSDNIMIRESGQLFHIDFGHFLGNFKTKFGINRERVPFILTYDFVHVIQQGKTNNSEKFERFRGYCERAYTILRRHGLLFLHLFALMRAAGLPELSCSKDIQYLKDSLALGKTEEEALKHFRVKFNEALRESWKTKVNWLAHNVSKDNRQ
# PIK3CA (human), sequence (P42336 whole entry, looked up): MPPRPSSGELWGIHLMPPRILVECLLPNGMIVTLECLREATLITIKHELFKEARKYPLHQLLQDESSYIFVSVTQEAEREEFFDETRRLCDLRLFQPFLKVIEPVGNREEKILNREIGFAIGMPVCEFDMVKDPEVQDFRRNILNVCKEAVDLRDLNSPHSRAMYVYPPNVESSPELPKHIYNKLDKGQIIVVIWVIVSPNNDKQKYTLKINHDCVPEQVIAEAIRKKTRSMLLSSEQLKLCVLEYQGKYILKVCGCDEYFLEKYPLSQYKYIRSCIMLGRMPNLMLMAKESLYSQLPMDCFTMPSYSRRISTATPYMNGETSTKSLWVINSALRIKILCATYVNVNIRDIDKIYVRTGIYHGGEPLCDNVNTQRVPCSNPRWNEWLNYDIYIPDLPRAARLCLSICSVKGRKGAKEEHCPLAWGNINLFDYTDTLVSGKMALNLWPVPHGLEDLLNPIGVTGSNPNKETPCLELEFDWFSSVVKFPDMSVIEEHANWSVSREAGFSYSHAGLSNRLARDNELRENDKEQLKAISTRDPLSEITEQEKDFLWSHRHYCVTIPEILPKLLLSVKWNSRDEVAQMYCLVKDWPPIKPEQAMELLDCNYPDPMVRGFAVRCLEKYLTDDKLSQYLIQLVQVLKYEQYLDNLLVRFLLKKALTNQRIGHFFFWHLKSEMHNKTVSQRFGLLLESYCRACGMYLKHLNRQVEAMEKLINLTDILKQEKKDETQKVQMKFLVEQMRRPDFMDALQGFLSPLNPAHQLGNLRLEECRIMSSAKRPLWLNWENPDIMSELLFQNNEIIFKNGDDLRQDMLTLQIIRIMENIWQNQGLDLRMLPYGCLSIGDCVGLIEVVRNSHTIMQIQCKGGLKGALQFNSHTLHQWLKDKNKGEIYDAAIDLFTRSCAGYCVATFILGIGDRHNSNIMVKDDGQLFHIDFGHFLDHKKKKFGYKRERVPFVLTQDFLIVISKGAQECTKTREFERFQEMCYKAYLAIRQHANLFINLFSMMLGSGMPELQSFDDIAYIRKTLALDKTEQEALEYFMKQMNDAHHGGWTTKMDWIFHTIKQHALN
# PIK3CB (Human), sequence (P42338 whole entry, looked up): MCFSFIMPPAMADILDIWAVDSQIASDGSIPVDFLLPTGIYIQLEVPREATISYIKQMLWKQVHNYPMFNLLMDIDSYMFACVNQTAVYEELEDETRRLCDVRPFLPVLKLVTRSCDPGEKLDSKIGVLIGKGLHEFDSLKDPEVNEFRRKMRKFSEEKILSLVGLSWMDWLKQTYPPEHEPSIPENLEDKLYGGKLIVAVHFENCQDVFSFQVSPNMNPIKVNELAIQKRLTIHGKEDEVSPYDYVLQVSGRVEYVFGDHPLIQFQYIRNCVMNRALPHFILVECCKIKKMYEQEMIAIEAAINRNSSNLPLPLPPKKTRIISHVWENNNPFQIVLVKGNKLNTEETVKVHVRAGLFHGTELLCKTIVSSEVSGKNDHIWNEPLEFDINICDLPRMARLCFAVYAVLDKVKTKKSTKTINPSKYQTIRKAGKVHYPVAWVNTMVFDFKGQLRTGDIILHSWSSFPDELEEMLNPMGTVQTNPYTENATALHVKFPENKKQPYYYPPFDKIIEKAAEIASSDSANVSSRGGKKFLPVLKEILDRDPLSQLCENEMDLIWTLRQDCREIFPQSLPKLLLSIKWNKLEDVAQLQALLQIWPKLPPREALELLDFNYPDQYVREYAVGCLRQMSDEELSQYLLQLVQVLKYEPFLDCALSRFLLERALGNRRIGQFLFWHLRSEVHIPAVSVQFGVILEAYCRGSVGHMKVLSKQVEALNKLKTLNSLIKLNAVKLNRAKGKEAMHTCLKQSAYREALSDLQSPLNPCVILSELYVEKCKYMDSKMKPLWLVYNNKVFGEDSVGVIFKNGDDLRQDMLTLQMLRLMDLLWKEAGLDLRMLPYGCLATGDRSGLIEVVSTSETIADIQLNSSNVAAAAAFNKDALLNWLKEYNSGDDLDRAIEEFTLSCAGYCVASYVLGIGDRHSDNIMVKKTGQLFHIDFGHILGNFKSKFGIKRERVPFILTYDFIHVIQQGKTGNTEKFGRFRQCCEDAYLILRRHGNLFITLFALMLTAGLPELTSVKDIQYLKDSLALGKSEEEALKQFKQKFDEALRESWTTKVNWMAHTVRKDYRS
# PIK3CG (human), sequence (P48736 whole entry, looked up): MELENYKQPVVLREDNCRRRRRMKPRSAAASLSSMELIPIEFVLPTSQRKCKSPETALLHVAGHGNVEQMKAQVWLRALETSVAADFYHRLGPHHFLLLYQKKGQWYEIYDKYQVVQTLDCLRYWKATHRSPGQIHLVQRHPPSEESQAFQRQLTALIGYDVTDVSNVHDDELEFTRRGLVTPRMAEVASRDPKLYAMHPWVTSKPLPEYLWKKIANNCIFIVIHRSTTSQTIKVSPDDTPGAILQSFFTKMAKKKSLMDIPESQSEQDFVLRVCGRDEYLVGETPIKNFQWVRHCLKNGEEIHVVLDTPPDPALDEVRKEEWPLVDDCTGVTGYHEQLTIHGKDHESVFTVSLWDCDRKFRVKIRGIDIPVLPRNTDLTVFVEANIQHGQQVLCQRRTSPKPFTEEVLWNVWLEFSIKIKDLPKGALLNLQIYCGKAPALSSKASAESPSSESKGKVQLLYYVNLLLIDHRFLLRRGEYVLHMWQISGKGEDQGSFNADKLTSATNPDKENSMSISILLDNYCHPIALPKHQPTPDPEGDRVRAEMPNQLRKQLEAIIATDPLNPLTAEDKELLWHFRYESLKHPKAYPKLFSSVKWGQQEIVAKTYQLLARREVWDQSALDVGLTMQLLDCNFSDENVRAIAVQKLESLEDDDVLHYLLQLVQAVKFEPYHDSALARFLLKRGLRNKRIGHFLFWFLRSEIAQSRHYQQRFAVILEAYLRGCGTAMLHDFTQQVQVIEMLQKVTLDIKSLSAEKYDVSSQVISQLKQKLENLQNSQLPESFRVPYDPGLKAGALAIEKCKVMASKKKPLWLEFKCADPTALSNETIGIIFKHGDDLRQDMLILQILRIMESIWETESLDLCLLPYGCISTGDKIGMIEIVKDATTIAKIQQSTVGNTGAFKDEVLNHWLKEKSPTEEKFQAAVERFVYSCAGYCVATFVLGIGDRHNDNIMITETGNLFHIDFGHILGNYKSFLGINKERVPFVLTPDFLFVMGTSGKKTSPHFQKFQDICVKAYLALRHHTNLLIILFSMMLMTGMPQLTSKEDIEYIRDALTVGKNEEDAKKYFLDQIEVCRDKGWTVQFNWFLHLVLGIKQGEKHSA
IC50 (PIK3CA (human)),IC50 (PIK3CB (Human)),IC50 (PIK3CG (human)),IC50 (PIK3CD (Human)),Structure (SMILES)
< 1 µM,< 1 µM,< 1 µM,< 1 µM,CN1CCN(C(=O)N2CCC(n3ncc4c(-c5cnc(N)nc5)nc(N5CCOCC5)nc43)CC2)CC1
< 1 µM,< 1 µM,< 1 µM,< 1 µM,Nc1ncc(-c2nc(N3CCOCC3)nc3c2cnn3C2CCOCC2)cn1

Structure (SMILES),IC50 (PIK3CA (human)),IC50 (PIK3CB (Human)),IC50 (PIK3CG (human)),IC50 (PIK3CD (Human))
CC(C)(O)Cn1ncc2c(-c3cnc(N)nc3)nc(N3CCOCC3)nc21,< 1 µM,< 1 µM,< 1 µM,< 1 µM
